Assay [1] is described as follows: Effective concentration against A2AR mediated P12 adenylatencyclase activity. In kind it is functional, Rattus norvegicus.
Assay [2] concerns the target T1, Adenosine receptor A1 (Rattus norvegicus, UniProt P25099).
T1 sequence (P25099 whole entry): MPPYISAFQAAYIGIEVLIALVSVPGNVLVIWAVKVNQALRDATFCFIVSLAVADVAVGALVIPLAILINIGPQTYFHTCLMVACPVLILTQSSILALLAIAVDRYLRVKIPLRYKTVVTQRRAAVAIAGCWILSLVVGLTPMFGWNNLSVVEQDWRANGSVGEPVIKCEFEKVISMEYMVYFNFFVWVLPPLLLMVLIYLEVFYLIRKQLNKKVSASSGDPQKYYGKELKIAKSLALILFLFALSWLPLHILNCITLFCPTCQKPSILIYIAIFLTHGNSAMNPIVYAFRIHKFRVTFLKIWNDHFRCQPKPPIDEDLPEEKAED

The target in the next assay is Adenosine A2 receptor (Rattus norvegicus, UniProt P29276+P30543). Briefly: Inhibition of [3H]- NECA binding to adenosine receptor A2. It counts as protein assay.
Assay [3] in a line: Concentration required to increase Adenosine A2A receptor mediated P12 Adenylate cyclase activity. In kind it is functional, Rattus norvegicus.
Assay [4] concerns the target T1, Adenosine receptor A1. Briefly: Inhibition of [3H]- (R)-P1A binding to adenosine A1 receptor.

EC50 and Ki data for ten compounds are collected here from ChEMBL document CHEMBL1125222, “Activity of N6-substituted 2-chloroadenosines at A1 and A2 adenosine receptors” (J Med Chem, 1991).

Usually EC50 stands for the concentration at which the effect is half-maximal. A high value points to a less potent agent. A word on the Ki: it is the dissociation constant of the complex between target and ligand, obtained from inhibition or displacement. Lower therefore signals tighter binding.

For the compound `C[C@H](Cc1ccccc1)Nc1ncnc2c1ncn2[C@@H]1O[C@H](CO)[C@@H](O)[C@H]1O` [(R)-PIA], it took 980 nM to reach a half-maximal effect in assay [1] (EC50).
For `OC[C@H]1OC(n2cnc3c(Nc4ccccc4)nc(Cl)nc32)[C@H](O)[C@@H]1O` (stereo not given in full), it took 1600 nM to reach a half-maximal effect in assay [1] (EC50). The figures for the Ki at Adenosine receptor A1 [2] and on Adenosine A2 receptor were 7.6 nM and 1700 nM, respectively.
`OC[C@H]1O[C@@H](n2cnc3c(NC4CCCC4)ncnc32)[C@H](O)[C@@H]1O` [N6-CYCLOPENTYLADENOSINE]: the response in assay [1] was half-maximal at 3200 nM (EC50). The Ki on Adenosine A2 receptor stood at 510 nM.
For the compound `C[C@@H](Cc1ccccc1)Nc1ncnc2c1ncn2[C@@H]1O[C@H](CO)[C@@H](O)[C@H]1O` [(S)-PIA], in assay [3], the EC50 worked out at 4200 nM.
As to `OC[C@H]1O[C@@H](n2cnc3c(Nc4ccccc4)ncnc32)[C@H](O)[C@@H]1O` [N6-PHENYLADENOSINE], in assay [1], the EC50 was 3100 nM. The Ki at Adenosine receptor A1 [2] was 16 nM; on Adenosine A2 receptor, 1200 nM.
On the same counts, the results for `C[C@@H](Cc1ccccc1)Nc1nc(Cl)nc2c1ncn2[C@@H]1O[C@H](CO)[C@@H](O)[C@H]1O` are 3000 nM, 20 nM and 3000 nM.
As for `Nc1nc(Cl)nc2c1ncn2[C@@H]1O[C@H](CO)[C@@H](O)[C@H]1O`, it took 460 nM to reach a half-maximal effect in assay [3] (EC50). This compound showed a Ki on Adenosine receptor A1 [4] of 6.7 nM.
Take `C[C@H](Cc1ccccc1)Nc1nc(Cl)nc2c1ncn2[C@@H]1O[C@H](CO)[C@@H](O)[C@H]1O`: the EC50 in assay [1] was 320 nM. For the same compound, the Ki on Adenosine receptor A1 [2] worked out at 1.4 nM; at Adenosine A2 receptor, 220 nM.
Take `Nc1ncnc2c1ncn2[C@@H]1O[C@H](CO)[C@@H](O)[C@H]1O` [ADENOSINE]: the EC50 in assay [3] was 150 nM.
The compound `OC[C@H]1O[C@@H](n2cnc3c(NC4CCCC4)nc(Cl)nc32)[C@H](O)[C@@H]1O` registered an EC50 in assay [1] of 730 nM. This counts as sub-micromolar.
